Data on eight compounds can be found in patent US5503776A, “N-acylcarnosines and their use as antioxidants” (National Food Research Institute Ministry of Agriculture, …, priority 1991, dated 1996).

Peptide text beside a SMILES is read from it. * marks the point of attachment. Oleoyl = CCCCCCCC/C=C\CCCCCCCC(=O)*

Data set [1] in a line: Repression of the radical chain autoxidation reaction of methyl linoleate (HPLC of methyl linoleate hydroperoxide). To be noted: hexane/isopropyl alcohol (1:1 v/v), 100 mM methyl linoleate, 10 mM 2,2'-azo-bis(2,4-dimethyl valeronitrile), 37° C.; FIG. 8-10. As for the experimental part: The N-oleoyl-carnosine, N-caprinoyl-carnosine and N-oleoyl-carnosine methyl ester obtained respectively in Examples 1, 3 and 4 were tested for antioxidizing power in terms of repression of the radical chain autoxidation reaction of methyl linoleate. Hexane/isopropyl alcohol (1:1 v/v) containing 100 mM of methyl linoleate, 10 mM of an oil-soluble generating agent (2,2'-azo-bis(2,4-dimethyl valeronitrile)), and various concentration of N-oleoyl-carnosine, N-caprinoyl-carnosine or N-oleoyl-carnosine methyl ester was kept incubated at 37° C., sampled at intervals along the course of time, and analyzed by high-performance liquid chromatography to follow changes in the amount of methyl linoleate hydroperoxide to be formed.

The nature of data set [2]: Repression of the radical chain autoxidizing reaction of a multilayer liposome (ferrous sulfate/ascorbic acid, TBA reaction). Conditions: 10 μM compound in liposome, 0.1 mM ferrous sulfate, 1 mM ascorbic acid, pH 7.4, 37° C.; FIG. 11. As for the experimental part:
The N-oleoyl-carnosine and the N-oleoyl-histidine obtained respectively in Example 1 and Example 2 were tested for antioxidizing power in terms of the repression of the radical chain autoxidizing reaction of a multilayer liposome. A multilayer liposome was formed of 4 mM of egg yolk phosphatidylcholine, 0.4 mM of egg yolk phosphatidylcholine hydroperoxide,and 10 μM of N-oleoylcarnosine or N-oleoyl-histidine by the use of 10 mM trishydrochloric acid buffer solution (pH 7.4). The multilayer liposome and 0.1 mM of ferrous sulfate and 1 mM of ascorbic acid added thereto were incubated at 37° C., sampled at intervals along the course of time, subjected to the TBA reaction to induce coloration of malondialdehyde resulting from the hydrolysis of lipid peroxide, and analyzed by high-performance liquid chromatography to follow changes in the amount of the hydrolyzate.

Data set [3] can be described thus: Emulsifying power in soybean oil/phosphate buffer, turbidity of lower layer O.D. (500 nm). Conditions: 0.2% in 50 mM phosphate buffer (pH 7), 30° C.; for Relative emulsifying activity (%): one half volume soybean oil, ultrasonic wave, relative to N-oleoyl-carnosine taken as 100; for emulsifying power (in words): oil-water system, soybean oil. In kind it is physicochemical. As for the experimental part: The N-oleoyl-carnosine and the N-oleoyl-histidine obtained respectively in Example 1 and Example 2 were tested for emulsifying power. The emulsifying power was determined by dissolving each N-acyl compound in a concentration of 0.2% in 50 mM of phosphate buffer solution (pH 7), combining the resultant solution with one half in volume of soybean oil, subjecting the resultant mixture to a treatment with ultrasonic wave at 30° C., allowing the treated mixture to stand at rest at 30° C. for a prescribed time, and measuring the turbidity of the lower layer consequently separated in the mixture in terms of O.D. (500 nm). […] The magnitudes of emulsifying power given in Table 1 represent relative numerical values of emulsifying power based on the emulsifying power of N-oleoyl-carnosine taken as 100.

As to `CCCCCCCCCC(=O)N[C@@H](Cc1c[nH]cn1)C(=O)O` [N-caprinoyl histidine], the “antioxidizing power (formation of methyl linoleate hydroperoxide)” value in data set [1] is reported as “have antioxidizing powers”.

For the compound `CCCCCCCCCC(=O)NCCC(=O)NC(Cc1cnc[nH]1)C(=O)O` (centres unmarked) [N-caprinoyl-carnosine, N-Caprinoyl carnosine], in data set [1], the “antioxidizing power (formation of methyl linoleate hydroperoxide)” value is “possessed of antioxidizing power”.

`CCCCCCCC/C=C\CCCCCCCC(=O)NCC(=O)NCC(=O)N[C@@H](Cc1c[nH]cn1)C(=O)O` [N-oleoyl glycylglycylhistidine] (Oleoyl-Gly-Gly-His-OH): the “antioxidizing power (formation of methyl linoleate hydroperoxide)” value in data set [1] was “have antioxidizing powers”.

Take `CCCCCCCC/C=C\CCCCCCCC(=O)N[C@@H](Cc1c[nH]cn1)C(=O)N[C@@H](CC(C)C)C(=O)O` [N-oleoyl histidylleucine] (Oleoyl-His-Leu-OH): the “antioxidizing power (formation of methyl linoleate hydroperoxide)” value in data set [1] was “have antioxidizing powers”.

Regarding `CCCCCCCC/C=C\CCCCCCCC(=O)N[C@@H](Cc1cnc[nH]1)C(=O)O` [N-oleoyl-His], the “antioxidizing power (formation of methyl linoleate hydroperoxide)” value in data set [1] is reported as “have antioxidizing powers”. Further, the “antioxidizing power (malondialdehyde from lipid peroxide)” value in data set [2] is given as “possessed of antioxidizing power”. Further, in data set [3], the “Relative emulsifying activity (%)” value is recorded as 82.1% and the “emulsifying power (in words)” value is “possessed of outstanding emulsifying power”.

For `CCCCCCCC/C=C\CCCCCCCC(=O)NCCC(=O)N[C@@H](Cc1cnc[nH]1)C(=O)OC` [N-oleoyl-carnosine methyl ester, N-Oleoyl carnosine methyl ester], the “antioxidizing power (formation of methyl linoleate hydroperoxide)” value in data set [1] is “possessed of antioxidizing power”.

Regarding `CCCCCCCC/C=C\CCCCCCCC(=O)NCCC(=O)N[C@@H](Cc1cnc[nH]1)C(=O)O` [N-oleoyl-carnosine], the “antioxidizing power (formation of methyl linoleate hydroperoxide)” value in data set [1] is recorded as “possessed of antioxidizing power”. Besides, the “antioxidizing power (malondialdehyde from lipid peroxide)” value in data set [2] was “possessed of antioxidizing power”. Besides, in data set [3], the “Relative emulsifying activity (%)” value was determined as 100% and the “emulsifying power (in words)” value was “possessed of outstanding emulsifying power”.

On to Casein, for which the “Relative emulsifying activity (%)” value in data set [3] is 24.3%.
